Here are results for 13 compounds from US4521537A, “Spiro[2H-1,4-benzodioxepin-3(5H)4'-piperidine and -3'-pyrrolidine] compounds and their use as antihypertensive agents” (Hoechst-Roussel Pharmaceuticals Incorporated, priority 1984, dated 1985).

Assay [1] deals with spontaneous hypertensive rat. As to the kind of experiment: antihypertensive activity, spontaneous hypertensive rat (SHR) test, indirect tail cuff method. It is filed as in vivo. As to conditions: Table III. On the procedure: Compounds of this invention are useful as antihypertensive agents due to their ability to depress blood pressure in mammals. Antihypertensive activity is measured in the spontaneous hypertensive rat by the indirect tail cuff method described by A. Schwartz, Ed., Methods in Pharmacology, Vol. page 135, Appleton Century Crafts, New York (1971). […] The drop in blood pressure is measured on the third day following administration. The antihypertensive activity is expressed as mm Hg decrease in mean arterial blood pressure.

A further assay relates to mice. As to the kind of experiment: phenylquinone-induced writhing test in mice (PQW), analgesia. It is filed as in vivo, male, CD-1 mice. As to conditions: Mus musculus; for ED50: SC, printed in PQW % column, read-out: ED50 (PQW). On the procedure: Compounds of this invention produce analgesia when administered to mammals. A phenylquinone-induced writhing test in mice (PQW) was used as an assay to detect analgesia. The procedure employed was a modification of Siegmund, E., Cadmus, R. and Lu, G: Proc. Soc. Exptl. Bio. Med., 95: 729 (1957). 12.5 mg of phenyl-p-benzoquinone were dissolved in 5 ml of 95% ethanol and q.s. to 100 ml with distilled water and administered to mice (10 ml/kg, i.p.). This produces a characteristic "writhe" which is defined as an inward rotation of one or more feet with twisting and turning of the trunk, drawing in of the abdominal wall, lordosis and arching of the back.
A total of 28 male, CD-1 mice (18 to 30 grams) were employed for a time response. Animals recived food and water ad libitum. Drugs to be tested were prepared with distilled water and, if insoluble, one drop of a suitable surfactant was added.
Twenty animals (5/group) were administered the drug 15, 30, 45 and 60 minutes prior to phenylquinone injections. Control animals (2/group) received an equal amount of vehicle. After the administration of phenylquinone the mice were placed separately into one-liter beakers and 5 minutes were allowed to lapse. The mice were then observed for a period of 10 minutes and the number of writhes were recorded for each animal. The formula for computing percent inhibition is: [formula]
The time period with the greatest percent of inhibition is considered the peak time.
A dose range is run in the same fashion as a time response except 10 animals per group were tested at the peak time of drug activity. Fifty animals, 4 drug groups, and a vehicle control were employed. Animals were dosed and tested in a randomized manner. An estimated ED50 was calculated by a computer linear regression analysis.
A general note: An intraperitoneal irritant provokes the stretching counted in writhing tests.

The mark [2] stands for this setting: Table III, 20 mg/kg SC, read-out: PQW % (percent inhibition of writhing).

Counter-ions that a name gives are not always drawn. Like-named read-outs stand apart in the source and are kept apart here.

As to `CCOC(=N)N1CCC2(CC1)OCc1ccccc1OC2C` (stereo not shown) [Example 72, 2-Methylspiro[2H-1,4-benzodioxepin-3(5H)4'-piperidine]-1'-carboximidic acid, ethyl ester hydrochloride], the “SHR mm Hg (decrease in mean arterial blood pressure)” value in assay [1] (50 mg/kg PO) is reported as -20 mm Hg. Also, the change in vivo at 20 mg/kg in the assay with mice (setting [2]) was -51%.
With `CC1Oc2ccc(F)cc2COC12CCN(CCCC(c1cccc(F)c1)c1cccc(F)c1)CC2` (stereo not shown) [Example 76, 1'-[4,4-Bis(3-fluorophenyl)butyl]-7-fluoro-2-methylspiro[2H-1,4-benzodioxepin-3(5H)4'-piperidine]hydrochloride], the “SHR mm Hg (decrease in mean arterial blood pressure)” value in assay [1] (0.3 mg/kg PO) is -31 mm Hg. Moreover, the change in vivo at 20 mg/kg with mice (setting [2]) was -38%.
A word on the ED50: it is the dose that gives a 50% effect, or the effect in half of the subjects. `CC1Oc2ccc(F)cc2COC12CCN(CCCCc1ccc(F)cc1)CC2` (stereo not shown) [Example 77, 1'-[4-(4-Fluorophenyl)butyl]-7-fluoro-2-methylspiro[2H-1,4-benzodioxepin-3(5H)4'-piperidine]hydrochloride]: in assay [1] (50 mg/kg PO), the “SHR mm Hg (decrease in mean arterial blood pressure)” value is reported as -40 mm Hg. Moreover, the change in vivo at 5 mg/kg with mice (Table III, 5 mg/kg SC, read-out: PQW % (percent inhibition of writhing)) is -66%. Also, in the assay on mice (Table III), the ED50 was found to be 4.3 mg/kg.
As to `CC1Oc2ccc(Cl)cc2COC12CCN(CCCCc1ccc(F)cc1)CC2` (stereo not shown) [Example 78, 1'-[4-(4-Fluorophenyl)butyl]-7-chloro-2-methylspiro[2H-1,4-benzodioxepin-3(5H)4'-piperidine]hydrochloride], the “SHR mm Hg (decrease in mean arterial blood pressure)” value in assay [1] (50 mg/kg PO) is given as -61 mm Hg. Also, the change in vivo at 20 mg/kg in the assay on mice (setting [2]) was -68%. Moreover, the median effective dose (ED50) with mice (Table III) worked out at 6.8 mg/kg.
In the case of `CC1Oc2ccc(Cl)cc2COC12CCN(CCCC(c1cccc(F)c1)c1cccc(F)c1)CC2` (stereo not shown) [Example 79, 1'-[4,4-Bis(3-fluorophenyl)butyl]-7-chloro-2-methylspiro[2H-1,4-benzodioxepin-3(5H)4'-piperidine]hydrochloride], in assay [1] (0.3 mg/kg PO), the “SHR mm Hg (decrease in mean arterial blood pressure)” value was -27 mm Hg. For the same compound, in the assay on mice (setting [2]), the change in vivo at 20 mg/kg was -91%.
For `CC(=O)N1CCC2(CC1)OCc1cc([N+](=O)[O-])ccc1OC2C` (stereo not shown) [Example 80, 1'-Acetyl-2-methyl-7-nitrospiro[2H-1,4-benzodioxepin-3(5H)4'-piperidine]], in assay [1] (50 mg/kg PO), the “SHR mm Hg (decrease in mean arterial blood pressure)” value is recorded as -19 mm Hg. The change in vivo at 20 mg/kg with mice (setting [2]) is -22%.
On to `CC1Oc2ccc(Cl)cc2COC12CCN(CCOC(c1ccc(F)cc1)c1ccc(F)cc1)CC2` (stereo not shown) [Example 85, 7-Chloro-1'-[2-(bis(4-fluorophenyl)methoxy)ethyl]-2-methylspiro[2H-1,4-benzodioxepin-3(5H)4'-piperidine]hydrochloride], for which the “SHR mm Hg (decrease in mean arterial blood pressure)” value in assay [1] (50 mg/kg PO) is on record as -46 mm Hg. For the same compound, the change in vivo at 20 mg/kg with mice (sc, read-out: PQW % (percent inhibition of writhing)) was -44%.
For the compound `CC1Oc2ccc(Cl)cc2COC12CCN(CCCCC(c1ccc(F)cc1)c1ccc(F)cc1)CC2` (stereo not shown) [Example 86, 7-Chloro-2-methyl-1'-[5,5-bis(4-fluorophenyl)pentyl]-spiro[2H-1,4-benzodioxepin-3(5H)4'-piperidine]hydrochloride], the “SHR mm Hg (decrease in mean arterial blood pressure)” value in assay [1] (50 mg/kg PO) was -42 mm Hg. In addition, the change in vivo at 20 mg/kg in the assay with mice (setting [2]) is -25%.
The corresponding values for `CC1Oc2ccccc2COC12CCN(CC(O)COc1ccccc1)CC2` (stereo not shown) [Example 88, 2-Methyl-1'-(2-hydroxy-3-phenoxypropyl)spiro[2H-1,4-benzodioxepin-3(5H)4'-piperidine]hydrochloride] are -34 mm Hg and -99%.
The corresponding values for `COc1ccc(OCC(O)CN2CCC3(CC2)OCc2ccccc2OC3C)cc1` (stereo not shown) [Example 89, 2-Methyl-1'-[2-hydroxy-3-(4-methoxyphenoxy)propyl]-spiro[2H-1,4-benzodioxepin-3(5H)4'-piperidine]hydrochloride] are -40 mm Hg and -57%.
The corresponding values for `CC1Oc2ccc(Cl)cc2COC12CCN(CC(O)COc1ccccc1)CC2` (stereo not shown) [Example 91, 7-Chloro-2-methyl-1'-(2-hydroxy-3-phenoxypropyl)spiro[2H-1,4-benzodioxepin-3(5H)4'-piperidine]hydrochloride] are -29 mm Hg and -67%.
With `COc1ccc(OCC(O)CN2CCC3(CC2)OCc2cc(Cl)ccc2OC3C)cc1` (stereo not shown) [Example 92, 7-Chloro-2-methyl-1'-[2-hydroxy-3-(4-methoxyphenoxy)propyl]spiro[2H-1,4-benzodioxepin-3(5H)4'-piperidine]hydrochloride], the “SHR mm Hg (decrease in mean arterial blood pressure)” value in assay [1] (50 mg/kg PO) was -66 mm Hg. In the assay on mice (setting [2]), the change in vivo at 20 mg/kg was -47%.
The corresponding values for `CC1Oc2ccc(Cl)cc2COC12CCN(CC(O)COc1ccc(F)cc1)CC2` (stereo not shown) [Example 93, 7-Chloro-2-methyl-1'-[2-hydroxy-3-(4-fluorophenoxy)propyl]spiro[2H-1,4-benzodioxepin-3(5H)4'-piperidine]hydrochloride] are -24 mm Hg and -88%.
